# Test results: US20120245193A1, “PER[…] μ OPIOID ANTAGONISTS” (Alkermes, Inc., priority 2011, published 2012)
# Key:
# [1] = test system: Male Swiss-Webster mice; assay: PGE2 test of gut motility (inhibition of morphine's blockade of PGE2-induced diarrhea); assay type: in vivo
# Method: A rodent model of gut motility model (Russell, et al., 1982; Eur. J. Pharm., 78: 255-61) was used to evaluate the bioavailability and efficacy of Compound-1 in […]. The PGE2 test of gut motility evaluates the inhibition of morphine's side effects. PGE2 (a prostaglandin) induces diarrhea in mice within 15 minutes of an intraperitoneal injection (0.1 mg/kg). Morphine (1 mg/kg, IP) blocks this effect. Peripherally-acting opioid antagonists inhibit morphine's blockade of PGE2-induced diarrhea. Male Swiss-Webster mice (n=10/group) were administered Compound-1 or a reference compound 15 minutes (IP or PO) prior to morphine and placed in a Plexiglas pie cage. PGE2 was administered 30 minutes after morphine. Observations of diarrhea were made 15 minutes after PGE2 administration. Duration of action was tested by adjusting the time between Compound-1 and morphine administration. FIGS. 2 and 3 show the effectiveness of reference compound methylnaltrexone (MNTX) and Compounds 1-4 to inhibit opioid-induced delay in gut motility by oral and IP administration.
# (NTX represents naltrexone).
# [2] = test system: patients diagnosed with opioid-induced bowel dysfunction (OBD); assay: Multicenter, multi-dose study in patients with opioid-induced bowel dysfunction; assay type: in vivo, human
# Method: In this multicenter, multi-dose study, 87 patients diagnosed with opioid-induced bowel dysfunction (OBD) during treatment with opioids for chronic, non-cancer pain were randomized to receive escalating doses of Compound-1 (1-100 mg), or placebo with a pre-defined dose escalation schedule. […] (FIG. 8).
# The mean change from baseline in CSBMs per week for patients receiving 100 mg Compound-1 was 3.6 versus 0.8 in the placebo group (p=0.006), or a net increase of 2.8 CSBMs over placebo.
smiles,measurement,setting,value
C[N+]1(CC2CC2)CC[C@]23CC(=O)CC[C@@]2(O)[C@H]1Cc1ccc(C(N)=O)c(O)c13 (stereo partly drawn) [Compound-1],duration of action compared with MNTX,"[1]; minimal effective PO dose of Compound-1 vs minimal effective IP dose of MNTX, FIG. 7",longer duration of action than MNTX
same,dose relative to methylnaltrexone at which morphine's effects are blocked,"[1]; oral administration, FIG. 6",3 fold lower
same,duration of blocking morphine's effects,"[1]; oral administration, FIG. 6, compared with methylnaltrexone",up to 4 hours
same,change from baseline in number of average spontaneous bowel movements (SBMs) in comparison to placebo,[2]; 30 mg dose,statistically significant increase
same,net increase of CSBMs over placebo,[2]; 100 mg,2.8 CSBMs
same,average number of complete spontaneous bowel movements (CSBMs) per week from baseline as compared to placebo,[2]; 100 mg dose,clinically meaningful and statistically significant increase
same,change from baseline in number of average spontaneous bowel movements (SBMs) in comparison to placebo,[2]; 100 mg dose,statistically significant increase
same,net increase of SBMs over placebo,[2]; 100 mg once-daily,3.9 SBMs
same,mean change from baseline in the average number of SBMs per week,"[2]; 100 mg once-daily, placebo 0.7, p=0.003",4.6 SBMs per week
same,mean change from baseline in CSBMs per week,"[2]; 100 mg, placebo 0.8, p=0.006",3.6 CSBMs per week
same,opioid use,[2]; escalating doses 1-100 mg,no increase in opioid use
same,reversal of analgesia as measured by change in Numerical Pain Rating Scale (NPRS) scores,[2]; escalating doses 1-100 mg,no reversal of analgesia
